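In this assay, cells in 96-well plates receive the compound at five concentrations for 48 hours. Endpoints are linearly interpolated between the surrounding concentrations. At the GI50, growth is halved. TGI is the concentration that stops growth completely.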
What was measured:
Assay in all cases: NCI anticancer screen, dose series, 48 h
HCT-15 colon = tested on: HCT-15 colon
HOP-62 NSCLC = tested on: HOP-62 NSCLC
NCI/ADR-RES ovarian = tested on: NCI/ADR-RES ovarian
SF-539 CNS = tested on: SF-539 CNS
OVCAR-3 ovarian = tested on: OVCAR-3 ovarian
UO-31 renal = tested on: UO-31 renal
PC-3 prostate = tested on: PC-3 prostate
LOX IMVI melanoma = tested on: LOX IMVI melanoma

SMILES | GI50 (HCT-15 colon) | TGI (HCT-15 colon) | GI50 (HOP-62 NSCLC) | TGI (HOP-62 NSCLC) | GI50 (NCI/ADR-RES ovarian) | TGI (NCI/ADR-RES ovarian) | GI50 (SF-539 CNS) | TGI (SF-539 CNS) | GI50 (OVCAR-3 ovarian) | TGI (OVCAR-3 ovarian) | GI50 (UO-31 renal) | TGI (UO-31 renal) | GI50 (PC-3 prostate) | TGI (PC-3 prostate) | GI50 (LOX IMVI melanoma) | TGI (LOX IMVI melanoma)
O=[N+]([O-])c1c(Br)sc(Br)c1[N+](=O)[O-] | 1.59 µM | 4.48 µM | 3.25 µM | 11.3 µM | 3.3 µM | 23.8 µM | 2.49 µM | 6.35 µM | 1.71 µM | 3.2 µM | 1.59 µM | 3.55 µM | 1.94 µM | 4.03 µM | 1.58 µM | 3.07 µM
CCNC(=O)c1cc2c(-c3cc(C(C)(C)O)ccc3Oc3c(C)cc(F)cc3C)cn(C)c(=O)c2[nH]1 | 1.84 µM | 14.2 µM | 0.914 µM | 13.7 µM | 7.49 µM | 23.2 µM | 1.92 µM | 13.2 µM | 1.93 µM | 11.9 µM | 0.1 µM | 10.9 µM | 2.42 µM | 13.9 µM | 0.922 µM | 2.74 µM
COc1cc(COC(=O)N(CC(=O)O)c2ccccc2)c([N+](=O)[O-])cc1OC |  | > 100 µM |  | > 100 µM |  | > 100 µM |  | > 100 µM |  | > 100 µM |  | > 100 µM |  | > 100 µM |  | 
CN(C)c1ccc(Nc2cc(-c3cccc(OC(F)(F)F)c3)nc3ccc(N4CCCC4)cc23)cc1 | 1.75 µM | 3.53 µM | 1.67 µM | 3.22 µM | 1.92 µM | 3.88 µM | 1.77 µM | 3.36 µM | 1.74 µM | 3.14 µM | 1.77 µM | 3.17 µM |  |  | 1.73 µM | 3.25 µM
c1csc(-c2cc(-c3cccs3)c(-c3cccs3)s2)c1 |  | > 100 µM |  | > 100 µM |  | > 100 µM |  | > 100 µM |  | > 100 µM |  | > 100 µM |  | > 100 µM |  | 
COc1cc2c(cc1C)NC(=O)/C2=C\c1cccc(Oc2ccccc2)c1 | 13.3 µM | 26.2 µM |  |  | 12.9 µM | 32.4 µM | 19.4 µM | 34.5 µM | 13.2 µM | 26.8 µM | 11.7 µM | 27.5 µM | 12 µM | 25.2 µM | 12.9 µM | 26.4 µM
O=C(Nc1ccccc1)NS(=O)(=O)c1ccc(-n2nc3c(c2-c2ccc(Cl)cc2)Cc2ccccc2-3)cc1 | 18.5 µM | 69.7 µM | 72 µM | > 100 µM |  |  | 18.8 µM | 45.6 µM | 18.3 µM | 54.2 µM | 24.5 µM | > 100 µM | 16.7 µM | 47.8 µM | 15.3 µM | 46.4 µM
Cc1cccc2c(=O)c3c(sc12)c(NCCNCCO)nc1ccccc13 | 1.46 µM | 2.89 µM | 1.28 µM | 2.87 µM |  |  | 1.72 µM | 3.12 µM | 1.55 µM | 2.99 µM | 1.09 µM | 2.34 µM | 1.3 µM | 2.73 µM | 1.5 µM | 2.92 µM
CC(C)CCN=C(N)c1ccc(N2CCN(c3ccc(C(N)=NCCC(C)C)cc3)CC2)cc1 | 37.6 µM | > 100 µM | 10.4 µM | 26.9 µM | 61.4 µM | > 100 µM |  |  | 11.3 µM | 44.8 µM | 39.5 µM | > 100 µM | 11.4 µM | 43.4 µM | 21.2 µM | 57.3 µM
C=C1CCC2C(C)(C)CCC[C@]2(C)[C@H]1CO (stereo partly drawn) | 56.9 µM | > 100 µM | > 100 µM | > 100 µM | 60.3 µM | > 100 µM |  |  | > 100 µM | > 100 µM | > 100 µM | > 100 µM | 65.8 µM | > 100 µM | 24.9 µM | 70.2 µM
COC(=O)CCCC(=O)O |  | > 100 µM |  | > 100 µM |  | > 100 µM |  |  |  | > 100 µM |  | > 100 µM |  | > 100 µM |  | > 100 µM
COc1ccc(Nc2c3ccccc3nc3ccccc23)cc1 | 1.08 µM | 15.5 µM | 1.27 µM | 14.4 µM | 0.545 µM | 15.5 µM | 2.95 µM | 14.6 µM | 1.43 µM | 5.78 µM | 1.21 µM | 5.27 µM |  |  | 0.984 µM | 4.81 µM
COc1cc2c3c(n(CCCI)c(=O)c2cc1OC)-c1cc2c(cc1C3=O)OCO2 | 0.475 µM | > 100 µM | 4.45 µM | > 100 µM | 27.3 µM | > 100 µM | 4.04 µM | > 100 µM | 11.2 µM | > 100 µM | 2.53 µM | > 100 µM | > 100 µM | > 100 µM |  | 
CCCCS(=O)(=O)CCC(N)C(=O)O (stereo not drawn) |  | > 100 µM |  | > 100 µM |  | > 100 µM |  | > 100 µM |  | > 100 µM |  | > 100 µM |  | > 100 µM |  | 
CC1OC(OC2C(O[C@H]3CC[C@@]4(C)C(=CC[C@H]5[C@@H]6C[C@@H]7O[C@]8(CC[C@H](C)CN8)[C@@H](C)[C@@H]7[C@@]6(C)CC[C@@H]54)C3)OC(CO)C(O)C2OC2OC(CO)C(O)C(O)C2O)C(O)C(O)C1O (stereo partly drawn) |  | 30.3 µM |  |  |  | 32.5 µM |  | 33.8 µM |  |  |  | 33.2 µM |  | 33.5 µM |  | 83.6 µM

From PubChem BioAssay (NCI)
